Measurements taken from paper PMC9026148, “Pre-Clinical Study Evaluating Novel Protein Phosphatase 2A Activators as Therapeutics for Neuroblastoma” (Cancers, 2022).

Columns and labels:
[1] = Plasma levels after oral dose in mice; type: in vivo, mouse; details: male ICR mice, bolus oral dose 50 mg/kg in 1:1:8 DMA:Solutol:water; compared to DBK-1154
Experimental: Blood aliquots were collected via cardiac puncture (300 µL) sampling from anesthetized mice in tubes coated with lithium heparin, mixed gently, then kept on ice and centrifuged at 2500× g for 15 min at 4 °C, within 1 h of collection. The plasma was harvested and kept frozen at −70 °C until further processing.
The plasma samples were processed using protein precipitation and analyzed by LC-MS/MS. A plasma calibration curve was generated. Aliquots of drug-free plasma were spiked with the test articles at the specified concentration levels. The spiked plasma samples were processed together with the unknown plasma samples using the same procedure. The processed plasma samples were placed in the autosampler until the LC-MS/MS analysis, at which time peak areas were recorded, and the concentrations of the test articles in the unknown plasma samples were determined using the respective calibration curve. The reportable linear range of the assay was determined, along with the lower limit of quantitation (LLOQ).
Plots of plasma concentration of test articles, ATUX-792 and DBK-1154, vs. time are constructed and shown in Supplementary Figure S2.
levels compared to DBK -1154. Serum concentration after bolus oral dose of 50 mg/kg in
1:1:8 DMA:Solutol:water (3 animals per time point). Blood aliquots were collected via car- […]
quantitative bioanalysis. […]

[2] = tested on: SK-N-AS, SK-N-BE(2), SH-EP, WAC2 cells; assay: Modified Boyden chamber invasion assay; type: cell-based, human; details: 24-h treatment, same doses as scratch assay; four cell lines
Experimental: Since the established neuroblastoma cell lines grow as adherent cells, migration in SK-N-AS, SK-N-BE(2), SH-EP, and WAC2 cells was examined using monolayer wound healing (scratch) assay. […] Once cells reached 80% confluence, a sterile 200 μL pipette tip was used to make a standard scratch in the cell layer. Photographs of the plates were obtained at 0, 12, 24, and 36 h. ImageJ MRI Wound Healing Tool (http://imagej.nih.gov/ij/ (accessed on 14 October 2019) quantified the open wound area, and data reported as fold change of the open area ± SEM. Invasion was evaluated with a modified Boyden chamber technique. The insert bottoms were coated with collagen type I (10 µg/mL, MP Biomedicals, Santa Ana, CA, USA). The insert tops were coated with a layer of Matrigel^TM (1 mg/mL, 50 μL, BD Biosciences). Cells were treated for 24 h with 792 (SK-N-AS 10 μM; SK-N-BE(2), SH-EP, WAC2 15 μM) or 1154 (SK-N-AS, SK-N-BE(2) 10 μM; SH-EP, WAC2 15 μM), plated (4 × 10^4 cells), and allowed to invade through the membrane for 24 h. Insert membranes were fixed using 4% paraformaldehyde, stained with 1% crystal violet for 15 min, photographed, and invasion quantified with ImageJ (http://imagej.nih.gov/ij/ (accessed on 10 September 2019)). Invasion data were reported as mean percent membrane occupied by cells ± SEM. Experiments were completed with at least three biologic replicates.

WAC2 cells = assay: Cell cycle analysis by flow cytometry (PI), WAC2; type: cell-based, human; details: WAC2, 15 μM, 24 h; for percentage of cells in the S phase: untreated 38.2 ± 1.0; for percentage of cells in G1: untreated 44.7 ± 1.6
Experimental: To evaluate cell cycle, cells (1 × 10^6) were plated and maintained in respective media with reduced FBS (4%) for cell synchronization. […] Cells were washed with phosphate-buffered saline (PBS) and fixed at 4 °C for 30 min with 100% ethanol. Following a second PBS wash, cells were stained with propidium iodide (PI, Invitrogen, Waltham, MA, USA), RNAse A (0.1 mg/mL, Qiagen, Germantown, MD, USA), and 0.1% TritonX (Active Motif, Carlsbad, CA, USA), and FACSCalibur^TM Flow Cytometer (BD Biosciences, Franklin Lakes, NJ, USA) was used for examination. FlowJo software (FlowJo, LLC, Ashland, OR, USA) was used for data analysis. Data reported as mean percentage cells in phase ± SEM.

SMILES | oral bioavailability / plasma levels [1] | Invasion [2] | Mean % G1 (± SEM) (WAC2 cells) | Mean % G2 (± SEM) (WAC2 cells) | Mean % S (± SEM) (WAC2 cells) | percentage of cells in the S phase (WAC2 cells) [%] | percentage of cells in G1 (WAC2 cells) [%]
O=S(=O)(N[C@H]1COC[C@@H](n2c3ccc(Cl)cc3c3cc(Cl)ccc32)[C@@H]1O)c1ccc(OC(F)(F)F)cc1 [ATUX-792] | good oral bioavailability | significantly decreased | 54.5 (± 2.3) % | 14.3 (± 1.1) % | 25.4 (± 2.5) % | 25.4 ± 2.5 | 54.5 ± 2.3
O=S(=O)(NC1CCCC(N2c3ccccc3CCc3ccccc32)C1O)c1ccc(OC(F)(F)F)cc1 (stereo not shown) [DBK-1154] | – | significantly decreased | 49.6 (± 2.4) % | 19.0 (± 1.5) % | 28.4 (± 1.6) % | 28.4 ± 1.6 | 49.6 ± 2.4
